Key:
Assay type in all cases: in vivo
[1] = tested on: adult flies Musca domestica strain WHO-N; assay: Musca domestica test (MUSCDO surface treatment & contact assay); settings: surface concentration 4 mg/m^2, 30 minutes exposure, 24 hours after contact, read-out: mortality (efficacy)
Protocol: Musca domestica Test (MUSCDO Surface Treatment & Contact Assay)
(§1) Solvent: Aceton+2000 ppm rapeseed oil methyl ester (RME)
(§2) In order to produce a sufficient, active ingredient containing solution it is necessary to solve the test compound in the solvent-mix (acetone at 2 mg/ml/RME 2000 ppm). This solution is pipetted onto a glazed tile and after evaporation of the acetone, adult flies of the species Musca domestica strain WHO-N are placed onto the dried surface. The exposure time is 30 minutes.
(§3) Mortality in percent (%) is determined 24 hours after contact of the insects to the treated surface. 100% mortality means that all tested insects are dead, whereas 0% means that no insect died.

[2] = tested on: adult mosquitoes Aedes aegypti strain MONHEIM; assay: Aedes aegypti test (AEDSAE surface treatment & contact assay); settings: 24 hours after contact, read-out: mortality (efficacy)
Protocol: Aedes aegypti Test (AEDSAE Surface Treatment & Contact Assay)
as §1
as §2, with “mosquitoes” for “flies”, “Aedes aegypti” for “Musca domestica”, “MONHEIM” for “WHO-N”
as §3

[3] = tested on: adult cat fleas (Ctenocephalides felis); assay: Ctenocephalides felis in-vitro contact test, adult cat flea; settings: 1 μg/cm^2 (=100 g/ha), after 48 hours, read-out: efficacy (fleas dead or moribund)
How it was run: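 Acetone solution coated onto glass tube walls; 900 ppm gives 5 μg/cm². Once dry, 5–10 adult fleas per tube held at room temperature for 48 h. Efficacy (%) is the share of fleas dead or moribund, i.e. unable to climb away on a 45–50° C heating plate.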

[4] = tested on: adult mosquitoes Anopheles funestus strain FUMOZ-R; assay: Anopheles funestus test (ANPHFU surface treatment & contact assay); settings: surface concentration 20 mg/m^2, 30 minutes exposure, 24 hours after contact, read-out: mortality (efficacy)
Protocol: Anopheles funestus Test (ANPHFU Surface Treatment & Contact Assay)
as §1
as §2, with “mosquitoes” for “flies”, “Anopheles funestus” for “Musca domestica”, “FUMOZ-R (Hunt et al., Med. Vet. Entomol. 2005 Sep. 19(3): 271-275)” for “WHO-N”
as §3

[5] = tested on: adult engorged female ticks (Rhipicephalus microplus); assay: Rhipicephalus (Boophilus) microplus injection test; settings: 168 h, 4 μg/animal, egg deposition after 7 days, read-out: efficacy (infertile eggs)
How it was run: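 Efficacy is scored from egg fertility, with 100% meaning every egg infertile and 0% every egg fertile. Five engorged females per test received 1 μL DMSO solution abdominally. Eggs of unclear fertility were kept until hatching, about 42 days.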

[6] = tested on: Rhipicephalus (Boophilus) microplus larvae (strain Parkhurst, resistant against synthetic pyrethroids); assay: Rhipicephalus (Boophilus) microplus in-vitro contact test, larval cattle tick; settings: after 48 hours, read-out: efficacy (larvae dead or moribund)
How it was run: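 Acetone solutions were coated onto glass tube walls (900 ppm gives 5 μg/cm²); after drying, 20–50 pyrethroid-resistant Parkhurst larvae added and held at 27 °C, 85% RH. At 48 h, efficacy as % larvae dead or moribund, judged by loss of negative geotaxis.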

[7] = tested on: adult unfed cat fleas (Ctenocephalides felis); assay: Ctenocephalides felis oral test; settings: 48 h, 100 ppm in citrated cattle blood, after 2 days
How it was run: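 About 20 adult unfed cat fleas fed through parafilm on citrated cattle blood containing compound (from a DMSO concentrate). Blood held at 37° C, fleas at room temperature. Mortality in % scored after 2 days.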

[8] = tested on: adult brown dog ticks (Rhipicephalus sanguineus); assay: Rhipicephalus sanguineus in-vitro contact test, adult brown dog ticks; settings: 48 h, 5 μg/cm^2 (=500 g/ha), after 48 hours, read-out: efficacy (ticks dead or moribund)
How it was run: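 Acetone solution coated on glass tube inner walls (900 ppm, giving 5 μg/cm^2); after drying, 5–10 adult ticks added and kept 48 h at room temperature. Efficacy scored as percent dead or moribund, i.e., ticks unable to climb away on a 45–50 °C heating plate within 5 min.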

[9] = tested on: adult Blattella germanica strain PAULINIA; assay: Blattella germanica test (BLTTGE surface treatment & contact assay); settings: surface concentration 20 mg/m^2, 30 minutes exposure, 24 hours after contact, read-out: mortality (efficacy)
Protocol: Blattella germanica Test (BLTTGE Surface Treatment & Contact Assay)
as §1
as §2, with “animals” for “flies”, “Blattella germanica” for “Musca domestica”, “PAULINIA” for “WHO-N”
as §3

CC(NC(=O)c1cc(F)cc(C(F)(F)F)c1)c1nccnc1-c1ncccn1 (racemic) [Example I-7, (rac)-3-Fluoro-N-(1-(3-(pyrimidin-2-yl)pyrazin-2-yl)ethyl)-5-(trifluoromethyl)benzamide]
mortality at 4 mg/m2 [1]: 80 to 100%
mortality at 4 mg/m2 ([2]; surface concentration 4 mg/m^2, 30 minutes exposure): 80 to 100%
mortality at 20 mg/m2 ([2]; surface concentration 20 mg/m^2, 30 minutes exposure): 80 to 100%
pest or weed control at 1 µg/cm2, 100 g/ha [3]: 90%
mortality at 20 mg/m2 [4]: 80 to 100%
pest or weed control at 0.004 mg [5]: 100%
pest or weed control at 1 µg/cm2, 100 g/ha ([6]; 1 μg/cm^2 (=100 g/ha)): 100%
pest or weed control at 5 µg/cm2, 500 g/ha ([6]; 5 μg/cm^2 (=500 g/ha)): 100%
mortality at 100 ppm [7]: 100%
pest or weed control at 5 µg/cm2, 500 g/ha [8]: 100%
mortality at 20 mg/m2 [9]: 80 to 100%
